The experiment concerns NIH3T3 viability, ATP luminescence (CellTiter-Glo), 90 h. In words: NIH3T3 cell viability loss – ATP luminescence, mouse fibroblasts, counter-screen, dose response (AID 2010). (A counterscreen serves to expose hits that act by an unwanted route or on another target.)

Results filed as inconclusive are left out. The source made the active and inactive calls.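 The calls were made as follows: active = fitted IC50 within a set limit above the top dose, meaning light loss from cell killing; inconclusive = flat curve with 30 to 70% effect, or poor fit; inactive = IC50 beyond that set limit.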 A value given as a limit tells only on which side of the number the result lay.

Turning to `Cc1ccccc1OCc1n(CC(=O)OC2CC(C)CCC2C(C)C)c2ccccc2[n+]1C` (stereo not given), the IC50 (usually the concentration needed to halve the response being measured) was > 6 µM (inactive). The value for `O=[N+]([O-])C(/C=C(/Cl)[N+](=O)[O-])=C(N1CCCCC1)N1CCCCC1` was > 6 µM (inactive); that for `C#CCOCCOCCOCCNc1nc(N2CCN(C(=O)CCCCCCCCCCNC(=O)Cn3cc(C[C@@H](C)O)nn3)CC2)nc(N2CCN(C(=O)CCCCCCCCCCNC(=O)[C@H](CCCN=C(N)N)n3cc(C[C@@H](C)CC)nn3)CC2)n1` was > 6 µM (inactive); that for `CC(C)N1C(=O)/C(=C\c2nc3ccccc3c(=O)n2-c2ccccc2)c2ccccc21` was > 6 µM (inactive). As to `O=[N+]([O-])C(/C=C(\Cl)[N+](=O)[O-])=C(N1CCCCC1)N1CCCCC1`, the IC50 was > 6 µM (inactive).
